According to ChEMBL document CHEMBL1201862, “PubChem BioAssay data set” (2004):
Active and inactive are the calls of the source.

Assays:
[1] = molecular target: Cytochrome P450 2D6 (Homo sapiens, UniProt P10635)
[2] = molecular target: T1, Cytochrome P450 2C9 (Homo sapiens, UniProt P11712)
[3] = inhibitors of intracellular T. cruzi replication, confirmation, NIH3T3 host cells, beta-gal luminescence (AID 2044); assay type: functional, cell-based;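 note: intracellular parasites grown in NIH/3T3 mouse fibroblasts as host cells; luminescent beta-galactosidase reporter signal from transgenic T. cruzi replicating inside host cells; inhibitors lower the luminescence signal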
[4] = cytotoxicity toward NIH3T3 fibroblasts, dose response, counter-screen, cell-based, ATP luminescence, mouse fibroblasts (AID 2010); assay type: functional;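 note: cells exposed to compound for about 90 hours before reading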
[5] = molecular target: T2, Cytochrome P450 3A4 (Homo sapiens, UniProt P08684);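 note: CYP3A4 tested as one member of a cytochrome P450 panel screen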
[6] = molecular target: Cytochrome P450 2C19 (Homo sapiens, UniProt P33261); assay: Cytochrome panel assay with activity outcomes. Panel member name: p450-cyp2c19 Compounds with AC50 equal or less than 10 uM are considered active; assay type: functional; settings: read-out: AC50
[7] = molecular target: T3, Rac GTPase-activating protein 1 (Homo sapiens, UniProt Q9H0H5); assay: MgcRacGAP GTPase-activating activity inhibitors, confirmation, biochemical, ADP Hunter fluorescence, primary and confirmatory (AID 624330); assay type: functional
T3 sequence (Q9H0H5 whole entry): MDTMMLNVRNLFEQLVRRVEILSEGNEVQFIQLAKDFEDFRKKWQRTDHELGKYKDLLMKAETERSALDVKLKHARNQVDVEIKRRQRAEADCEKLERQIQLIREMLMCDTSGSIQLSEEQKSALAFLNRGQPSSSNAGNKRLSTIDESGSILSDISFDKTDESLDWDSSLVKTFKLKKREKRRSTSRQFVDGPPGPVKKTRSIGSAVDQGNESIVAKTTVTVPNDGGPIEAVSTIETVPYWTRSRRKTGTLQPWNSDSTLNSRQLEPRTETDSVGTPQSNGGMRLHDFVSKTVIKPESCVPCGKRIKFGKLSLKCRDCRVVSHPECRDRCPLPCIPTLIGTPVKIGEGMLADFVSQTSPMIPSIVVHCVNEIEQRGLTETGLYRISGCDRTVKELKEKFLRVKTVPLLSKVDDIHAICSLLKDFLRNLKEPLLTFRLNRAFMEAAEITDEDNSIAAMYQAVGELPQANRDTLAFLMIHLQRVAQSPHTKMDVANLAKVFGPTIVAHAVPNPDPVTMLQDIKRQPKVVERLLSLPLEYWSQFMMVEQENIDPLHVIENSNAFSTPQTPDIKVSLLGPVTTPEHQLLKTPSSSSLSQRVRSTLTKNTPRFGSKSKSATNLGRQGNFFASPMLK

[8] = molecular target: T2, Cytochrome P450 3A4; remark: listed apart in the source
[9] = molecular target: T1, Cytochrome P450 2C9; remark: listed apart in the source
[10] = tested on: HEK293; assay: NOD1 signaling inhibitors, primary screen, cell-based, luminescence, uHTS (AID 1578); assay type: functional; settings: Homo sapiens
[11] = tested on: HEK293; assay: cells; assay type: functional, cell-based; settings: Homo sapiens
[12] = tested on: HEK293; assay: cells; assay type: functional, cell-based; settings: Homo sapiens; remark: listed apart in the source
[13] = molecular target: Nucleotide-binding oligomerization domain-containing protein 2 (Homo sapiens, UniProt Q9HC29); assay: NOD2 signaling inhibitors, cell-based, luminescence, uHTS, HEK293 (AID 1566); assay type: functional
[14] = tested on: HEK293; assay: NOD2 signaling inhibitors in MDP-stimulated cells, cell-based, uHTS, luminescence (AID 2001); assay type: functional; settings: Homo sapiens
[15] = tested on: HEK293; assay: cells; assay type: functional, cell-based; settings: Homo sapiens; remark: listed apart in the source
[16] = molecular target: T4, Short transient receptor potential channel 4 (Mus musculus, UniProt Q9QUQ5); assay: mouse TRPC4 channel inhibitors, dose response, cell-based, HEK293 TRPC4/mu-opioid, Fluo-4 calcium (AID 434942); assay type: functional;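 note: potency of inhibitors blocking the TRPC4 calcium response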
T4 sequence (Q9QUQ5 whole entry): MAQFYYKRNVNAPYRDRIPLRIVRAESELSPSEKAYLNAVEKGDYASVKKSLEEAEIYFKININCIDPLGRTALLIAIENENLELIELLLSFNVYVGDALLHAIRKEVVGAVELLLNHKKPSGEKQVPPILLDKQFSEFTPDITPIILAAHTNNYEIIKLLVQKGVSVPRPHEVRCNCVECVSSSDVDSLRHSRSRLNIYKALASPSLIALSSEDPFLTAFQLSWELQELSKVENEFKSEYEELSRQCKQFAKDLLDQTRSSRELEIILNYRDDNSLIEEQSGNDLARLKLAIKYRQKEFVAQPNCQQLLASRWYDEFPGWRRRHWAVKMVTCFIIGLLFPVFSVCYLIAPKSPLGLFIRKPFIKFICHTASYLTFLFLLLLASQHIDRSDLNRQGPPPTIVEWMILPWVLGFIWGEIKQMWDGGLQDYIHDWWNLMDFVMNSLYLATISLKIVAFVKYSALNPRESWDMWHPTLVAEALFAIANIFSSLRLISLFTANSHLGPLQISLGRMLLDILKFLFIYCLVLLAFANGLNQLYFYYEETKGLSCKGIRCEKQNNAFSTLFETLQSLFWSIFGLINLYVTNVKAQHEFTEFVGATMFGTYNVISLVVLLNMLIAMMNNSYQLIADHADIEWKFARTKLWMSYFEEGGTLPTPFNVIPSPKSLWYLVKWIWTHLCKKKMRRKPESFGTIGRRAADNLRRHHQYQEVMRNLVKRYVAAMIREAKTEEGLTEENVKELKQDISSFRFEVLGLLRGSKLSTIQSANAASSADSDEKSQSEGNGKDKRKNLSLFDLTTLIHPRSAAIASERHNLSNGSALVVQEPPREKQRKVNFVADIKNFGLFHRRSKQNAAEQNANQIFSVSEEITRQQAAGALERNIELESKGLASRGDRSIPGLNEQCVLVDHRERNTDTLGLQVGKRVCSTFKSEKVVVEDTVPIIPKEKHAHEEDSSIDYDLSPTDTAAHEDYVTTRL

[17] = molecular target: T5, Cytochrome P450 1A2 (Homo sapiens, UniProt P05177);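 note: PubChem cytochrome P450 panel assay, CYP1A2 panel member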
T5 sequence (P05177 whole entry): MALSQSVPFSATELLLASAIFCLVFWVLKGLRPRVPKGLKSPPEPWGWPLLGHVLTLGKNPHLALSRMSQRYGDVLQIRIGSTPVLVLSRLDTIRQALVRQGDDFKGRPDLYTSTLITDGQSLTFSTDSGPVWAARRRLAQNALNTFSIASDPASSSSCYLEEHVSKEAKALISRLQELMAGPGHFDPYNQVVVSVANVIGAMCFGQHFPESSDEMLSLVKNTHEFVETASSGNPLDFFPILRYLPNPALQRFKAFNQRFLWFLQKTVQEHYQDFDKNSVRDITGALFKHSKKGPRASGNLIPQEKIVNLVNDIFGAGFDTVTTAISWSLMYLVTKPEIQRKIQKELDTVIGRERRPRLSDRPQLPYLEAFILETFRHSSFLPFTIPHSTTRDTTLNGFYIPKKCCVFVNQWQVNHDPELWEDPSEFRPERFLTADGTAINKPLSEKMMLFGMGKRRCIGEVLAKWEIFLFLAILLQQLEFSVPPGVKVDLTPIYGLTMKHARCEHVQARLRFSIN

[18] = THP-1 cell cytotoxicity, dose response, cytotoxicity control for non-replicating M. tuberculosis project (AID 489025); assay type: functional
[19] = Vero E6 cell cytotoxicity, dose response, cytotoxicity control for non-replicating M. tuberculosis project, secondary assay (AID 492998); assay type: functional, VeroE6; settings: Vero C1008
[20] = cells; assay type: functional
[21] = molecular target: T6, Carboxy-terminal domain RNA polymerase II polypeptide A small phosphatase 1 (Homo sapiens, UniProt Q9GZU7); assay: inhibitors of CTDSP1, concentration-response testing, biochemical assay, absorbance-based, actives from ultra-high-throughput screening (AID 540297); assay type: functional
T6 sequence (Q9GZU7 whole entry): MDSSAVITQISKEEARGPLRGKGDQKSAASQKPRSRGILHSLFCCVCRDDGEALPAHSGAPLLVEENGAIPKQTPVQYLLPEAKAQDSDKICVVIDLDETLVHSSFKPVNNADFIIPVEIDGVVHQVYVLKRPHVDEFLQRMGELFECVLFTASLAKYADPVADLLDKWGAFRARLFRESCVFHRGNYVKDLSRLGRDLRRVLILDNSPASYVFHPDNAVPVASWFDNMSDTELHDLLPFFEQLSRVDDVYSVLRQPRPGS

Cytochrome P450 2C19, sequence (P33261 whole entry): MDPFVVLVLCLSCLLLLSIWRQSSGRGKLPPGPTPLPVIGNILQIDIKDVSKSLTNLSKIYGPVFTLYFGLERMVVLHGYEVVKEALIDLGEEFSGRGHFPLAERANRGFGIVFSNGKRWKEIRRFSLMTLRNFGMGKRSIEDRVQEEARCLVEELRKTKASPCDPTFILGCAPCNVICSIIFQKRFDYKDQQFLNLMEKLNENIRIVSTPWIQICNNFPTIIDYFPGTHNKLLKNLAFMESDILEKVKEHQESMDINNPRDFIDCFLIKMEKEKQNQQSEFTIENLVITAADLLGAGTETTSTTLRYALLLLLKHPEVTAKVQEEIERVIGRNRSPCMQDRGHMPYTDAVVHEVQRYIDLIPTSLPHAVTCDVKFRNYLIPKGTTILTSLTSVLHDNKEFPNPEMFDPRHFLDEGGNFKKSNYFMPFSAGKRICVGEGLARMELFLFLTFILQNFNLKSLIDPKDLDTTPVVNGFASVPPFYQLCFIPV
Cytochrome P450 2D6, sequence (P10635 whole entry): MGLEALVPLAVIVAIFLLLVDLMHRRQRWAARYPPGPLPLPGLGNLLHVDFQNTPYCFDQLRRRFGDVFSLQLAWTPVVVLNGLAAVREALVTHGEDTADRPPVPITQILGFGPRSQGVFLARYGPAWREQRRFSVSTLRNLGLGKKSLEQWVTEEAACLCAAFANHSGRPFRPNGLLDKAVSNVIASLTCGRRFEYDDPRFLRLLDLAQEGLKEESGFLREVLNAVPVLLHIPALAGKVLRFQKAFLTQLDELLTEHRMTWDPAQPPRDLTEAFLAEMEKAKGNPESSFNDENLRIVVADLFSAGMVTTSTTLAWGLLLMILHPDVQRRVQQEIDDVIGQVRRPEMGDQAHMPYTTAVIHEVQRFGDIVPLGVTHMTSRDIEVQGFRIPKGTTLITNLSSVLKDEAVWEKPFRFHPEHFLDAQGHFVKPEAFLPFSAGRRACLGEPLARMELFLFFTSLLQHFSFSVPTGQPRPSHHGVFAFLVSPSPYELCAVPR
T1 sequence (P11712 whole entry): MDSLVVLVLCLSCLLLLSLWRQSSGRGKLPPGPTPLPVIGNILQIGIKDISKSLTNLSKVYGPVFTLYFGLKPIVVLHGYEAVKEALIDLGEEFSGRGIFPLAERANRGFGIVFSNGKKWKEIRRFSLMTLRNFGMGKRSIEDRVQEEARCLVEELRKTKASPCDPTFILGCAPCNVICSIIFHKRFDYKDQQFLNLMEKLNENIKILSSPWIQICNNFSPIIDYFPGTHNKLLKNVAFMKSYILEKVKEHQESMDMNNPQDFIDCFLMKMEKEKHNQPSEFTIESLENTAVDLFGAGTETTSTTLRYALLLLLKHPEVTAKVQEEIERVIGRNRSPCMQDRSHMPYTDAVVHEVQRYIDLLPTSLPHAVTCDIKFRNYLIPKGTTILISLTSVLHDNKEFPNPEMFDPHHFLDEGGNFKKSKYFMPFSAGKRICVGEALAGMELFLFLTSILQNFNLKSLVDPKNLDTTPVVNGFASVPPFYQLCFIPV
Nucleotide-binding oligomerization domain-containing protein 2, sequence (Q9HC29 whole entry, the tested form may be a part): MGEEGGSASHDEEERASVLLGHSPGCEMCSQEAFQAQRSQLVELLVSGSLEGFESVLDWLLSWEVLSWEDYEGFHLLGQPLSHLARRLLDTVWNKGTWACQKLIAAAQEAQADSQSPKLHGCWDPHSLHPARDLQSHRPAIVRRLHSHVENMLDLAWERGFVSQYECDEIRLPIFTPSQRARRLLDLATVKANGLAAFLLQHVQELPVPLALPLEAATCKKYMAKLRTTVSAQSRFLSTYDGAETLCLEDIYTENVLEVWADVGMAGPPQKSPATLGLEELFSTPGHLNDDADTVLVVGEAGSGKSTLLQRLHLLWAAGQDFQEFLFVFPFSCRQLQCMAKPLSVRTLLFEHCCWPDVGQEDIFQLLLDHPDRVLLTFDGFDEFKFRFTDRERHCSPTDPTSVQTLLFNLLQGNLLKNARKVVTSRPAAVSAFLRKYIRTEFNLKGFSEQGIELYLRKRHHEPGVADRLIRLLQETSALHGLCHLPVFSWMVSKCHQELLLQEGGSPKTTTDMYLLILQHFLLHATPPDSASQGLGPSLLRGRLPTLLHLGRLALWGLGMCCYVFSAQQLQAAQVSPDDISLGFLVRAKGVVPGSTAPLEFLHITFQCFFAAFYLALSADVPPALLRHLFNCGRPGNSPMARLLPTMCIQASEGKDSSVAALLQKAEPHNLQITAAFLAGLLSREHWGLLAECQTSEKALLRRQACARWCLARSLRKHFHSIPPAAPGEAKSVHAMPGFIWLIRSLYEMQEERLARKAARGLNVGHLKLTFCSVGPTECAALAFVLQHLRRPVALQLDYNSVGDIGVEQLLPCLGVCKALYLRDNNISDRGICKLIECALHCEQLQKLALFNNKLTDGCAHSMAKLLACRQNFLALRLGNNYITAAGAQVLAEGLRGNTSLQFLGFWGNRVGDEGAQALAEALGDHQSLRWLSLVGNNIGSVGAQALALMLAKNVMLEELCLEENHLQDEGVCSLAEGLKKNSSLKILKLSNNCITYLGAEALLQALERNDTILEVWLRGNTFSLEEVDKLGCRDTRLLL
T2 sequence (P08684 whole entry): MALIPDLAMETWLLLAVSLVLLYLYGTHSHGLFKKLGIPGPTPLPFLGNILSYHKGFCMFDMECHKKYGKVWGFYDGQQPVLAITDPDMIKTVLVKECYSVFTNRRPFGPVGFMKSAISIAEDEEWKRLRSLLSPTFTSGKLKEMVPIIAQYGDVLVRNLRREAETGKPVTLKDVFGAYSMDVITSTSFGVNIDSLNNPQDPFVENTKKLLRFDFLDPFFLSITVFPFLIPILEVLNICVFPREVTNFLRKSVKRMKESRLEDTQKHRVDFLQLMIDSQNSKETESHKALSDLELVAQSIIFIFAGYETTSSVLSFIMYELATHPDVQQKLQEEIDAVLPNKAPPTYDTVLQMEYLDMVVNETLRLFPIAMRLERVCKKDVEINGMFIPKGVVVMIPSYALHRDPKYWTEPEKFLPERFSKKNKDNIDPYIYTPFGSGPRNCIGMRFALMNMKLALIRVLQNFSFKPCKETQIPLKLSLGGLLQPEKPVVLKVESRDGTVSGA

With `Cc1ccccc1C(=O)NC(C)c1ccc2c(c1)CCCC2` (stereo unspecified) the AC50 [1] was 15.8 µM (inconclusive) and the AC50 [2] was “inconclusive”.

With `Cc1ccc(C)c(S(=O)(=O)NCc2ccc(C(=O)N3CCC(Cc4ccccc4)CC3)cc2)c1` the EC50 [3] was 2.66 µM (active), the EC50 [4] was > 60 µM (not active) and the AC50 [2] was “inconclusive”.

In the case of `c1ccc2c(CSCCc3ccncc3)cccc2c1`, the AC50 [5] is reported as “inconclusive”.

With `Cc1cc(C(=O)c2cnc(/N=C/N(C)C)s2)cc(C)c1O` the AC50 [6] was 25.1 µM (inconclusive), the IC50 [7] was 108 µM (active) and the AC50 [1] was 25.1 µM (inconclusive). The AC50 [8] was 25.1 µM (inconclusive) and the AC50 [2] was “inconclusive”.

With `COc1ccc2c(Cl)cc(NC(=S)Nc3ccccc3)nc2c1` the AC50 [6] was 3.16 µM (inconclusive), the AC50 [9] was 3.98 µM (inconclusive) and the AC50 [5] was “inconclusive”.

In the case of `Cc1cc(C)cc(OCC(=O)Nc2nc3ccc([N+](=O)[O-])cc3s2)c1`, the EC50 [10] is reported as 4.56 µM (active), the IC50 [11] is reported as 1.83 µM (active) and the IC50 [12] is reported as > 20 µM (inactive). The EC50 [13] was 7.65 µM (active), the IC50 [14] was 8.1 µM (active) and the IC50 [15] was > 20 µM (inactive).

With `Cc1cccc(CCN(C(=O)c2snc(C(N)=O)c2N)C(C(=O)NCC2CCCO2)c2ccc(F)cc2)c1` (stereo unspecified) the EC50 [16] was 2.66 µM (active).

In the case of `Cc1ccc(OCC(=O)NNC(=O)c2cc3ccccc3o2)cc1C`, the AC50 [6] is reported as 3.55 µM (inconclusive), the AC50 [17] is reported as 2.51 µM (inconclusive) and the AC50 [2] is reported as “inconclusive”.

For `CCOC(=O)C1=C(C)C/C(=N\NC(=O)c2ccccc2O)CC1`, the CC50 [18] was 21.8 µM (active), the CC50 [19] was 15.3 µM (active) and the IC50 [20] was 10.8 µM (active).

For `O=C(N/N=C/c1ccc([N+](=O)[O-])s1)c1cccnc1`, the EC50 [3] was 0.429 µM (active), the EC50 [4] was > 60 µM (not active) and the CC50 [18] was 14.9 µM (active). For the same compound, the CC50 [19] was 14.6 µM (active) and the IC50 [20] was 11.2 µM (active).

In the case of `COc1ccc(C)cc1NC(=O)CSc1ccc(-c2sc(C)nc2C)nn1`, the EC50 [10] is reported as 9.47 µM (active), the IC50 [11] is reported as 14.1 µM (active) and the IC50 [12] is reported as > 20 µM (inactive). For the same compound, the EC50 [13] was 4.63 µM (active), the IC50 [14] was 10.7 µM (inactive) and the IC50 [15] was > 20 µM (inactive).

With `c1ccc2[nH]c(CCCCc3nc4ccccc4[nH]3)nc2c1` the EC50 [16] was 2.37 µM (active).

With `O=C(N/N=C/c1ccco1)C1CC1c1ccccc1` (stereo unspecified) the IC50 [21] was 9.59 µM (active).

For `CCN(CC)c1nc2ccccc2[nH]1.Cl`, the AC50 [1] was 25.1 µM (inconclusive) and the AC50 [2] was “inconclusive”.

For `Cn1cccc1C(=O)N1CCC2(CC1)CCN(c1ccccc1)CC2`, the AC50 [17] was 12.6 µM (inconclusive) and the AC50 [5] was “inconclusive”.

For `CCOc1cc(/C=C2\C(=N)N3N=CSC3=NC2=O)ccc1OS(=O)(=O)c1ccccc1`, the EC50 [16] was 4.73 µM (active).

In the case of `CC(=O)CC1(OC(C)=O)C(=O)N(C)c2ccccc21` (stereo unspecified), the CC50 [18] is reported as 35.5 µM (active), the CC50 [19] is reported as 15.5 µM (active) and the IC50 [20] is reported as 14.4 µM (active).

For `CCOC(=O)c1ccc2nc(C)c(CCC(C)=O)c(Cl)c2c1`, the AC50 [9] was 1 µM (inconclusive) and the AC50 [5] was “inconclusive”.

For `CC1CCc2sc3ncnc(N4CCOCC4)c3c2C1` (stereo unspecified), the EC50 [10] was 6.02 µM (active), the IC50 [11] was 3.54 µM (active) and the IC50 [12] was > 20 µM (inactive). The EC50 [13] was 8.76 µM (active), the IC50 [14] was 4.85 µM (active) and the IC50 [15] was > 20 µM (inactive).
